From ChEMBL document CHEMBL5053556, “Design, Synthesis, and Biological Evaluation of a Novel Series of Teriflunomide Derivatives as Potent Human Dihydroorotate Dehydrogenase Inhibitors for Malignancy Treatment” (J Med Chem, 2021)

How the values were obtained:
HL-60 = assay: Antiproliferative activity against human HL-60 cells assessed as cell growth inhibition incubated for 96 hrs by MTT assay; type: functional, cell-based; conditions: HL-60, 96 h
[1] = Drug distribution in NOD-SCID mouse liver at 40 mg/kg, po administered for 25 days by LC-MS analysis; type: ADME, organism-based; conditions: in vivo, 600 h, time 25 day
Raji [2] = assay: Induction of cell cycle arrest in human Raji cells assessed as accumulation of cells at S phase at 0.25 uM after 24 hrs by propidium iodide staining based flow cytometric analysis (reference value: 45.7%); type: functional
Raji [3] = assay: Antiproliferative activity against human Raji cells assessed as cell growth inhibition at 0.1 uM incubated for 96 hrs by MTT assay; type: functional; set-up: scale not given: the % may be the effect or the level left
[4] = Acute toxicity in BALB/c mouse assessed effect on feeding at 400 mg/kg, po; type: organism-based; conditions: in vivo
Mus musculus [5] = assay: Toxicity in NOD-SCID mouse xenografted with human Raji cells assessed as change in AST level at 40 mg/kg, po administered for 25 days; type: organism-based; conditions: in vivo, 600 h, time 25 day
Raji [6] = assay: Induction of cell cycle arrest in human Raji cells assessed as accumulation of cells at S phase at 0.5 uM after 24 hrs by propidium iodide staining based flow cytometric analysis (reference value: 45.7%); type: functional
[7] = Half life in Sprague-Dawley rat at 5 mg/kg, iv measured after 48 hrs by LC-MS analysis; type: ADME, organism-based; conditions: in vivo
Daudi = assay: Antiproliferative activity against human Daudi cells assessed as cell growth inhibition incubated for 96 hrs by MTT assay; type: functional, cell-based
[8] = Acute toxicity in BALB/c mouse assessed as effect on lung at 400 mg/kg, po measured on day 14 by H and E staining based assay; type: organism-based; conditions: in vivo, 336 h, time 14 day
Mus musculus [9] = assay: Toxicity in NOD-SCID mouse xenografted with human Raji cells assessed as mortality at 40 mg/kg, po administered for 25 days; type: organism-based; conditions: in vivo, 600 h, time 25 day
[10] = Drug distribution in NOD-SCID mouse kidney at 40 mg/kg, po administered for 25 days by LC-MS analysis; type: ADME, organism-based; conditions: in vivo, 600 h, time 25 day
[11] = Microsomal stability in rat liver microsomes assessed as half life at 1 uM measured upto 120 mins in presence of NADPH by LC-MS analysis; type: ADME, Microsome

C/C(O)=C(\C#N)C(=O)Nc1cc(O[C@@H](C)C(F)(F)F)c(C(=O)Nc2c(F)cccc2F)cc1F
IC50 (HL-60): 20 nM | Drug uptake [1]: Active | Activity (Raji [2]): 70.3% | Activity (Raji [3]): 43.1% | Activity [4]: Non-Toxic | Activity (Mus musculus [5]): Non-Toxic | Activity (Raji [6]): 86.9% | half-life [7]: 7.1 h | IC50 (Daudi): 20 nM | Activity [8]: Non-Toxic | Activity (Mus musculus [9]): Non-Toxic | Drug uptake [10]: Active | half-life at 1 µM [11]: 1.43 h
